Tested on: beta-defensin 2 (human β-defensin 2, hBD-2)
Assay: beta-defensin 2 synthesis ELISA in cortisol-treated HaCaT cells
Assay type: cell-based
Parameters: change of beta-defensin 2 in skin cells: dose or concentration left out as unconfirmed
Settings: for enhancement efficacy (beta-defensin 2 synthesis): single treatment at 1 ppm
Description: First, HaCaT, which is a human epidermal cell of the outermost layer among skin cells, was cultured using Dulbecco's Modified Eagle's Media (DMEM; Gibco, USA) mixed with 10% fetal bovine serum (FBS; Gibco, USA) and 1% antibiotic antimycotic (Gibco, USA) in a 24-well plate under conditions of 37° C. and 5% CO2. […] […] After 24 hours, the cells were treated with curcumin, taurine, and acetyl hexapeptide-8 at experimental concentrations, and cultured for 24 hours. At this time, curcumin, taurine, and acetyl hexapeptide-8 were treated alone, and the concentration of curcumin was fixed at 0.1 ppm and 1 ppm, and then taurine and acetyl hexapeptide-8 were treated in combination of concentrations, and cultured for 24 hours. 24 hours after treatment with each sample, ELISA was performed to quantify the amount of beta-defensin 2 (human β-defensin 2, hBD-2) protein synthesis. ELISA was performed using the HUMAN BETA DEFENSIN 2 ELISA kit (ALPHA DIAGNOSTIC, USA) and using the cell culture medium according to the kit's manual, and the final protein amount was calculated by measuring absorbance at 400 nm. […] At this time, when the amount thereof increased compared to the decrease due to cortisol, it was interpreted that the synthesis of beta-defensin 2 was increased by the sample. In addition, the synergistic effect between respective active substances that enhance beta-defensin 2 which had been reduced by cortisol was predicted through the Colby formula, and when the actual measured value was greater than the predicted value, it was determined that there was the synergistic effect.

[1] = Table 4: each substance at 1 ppm, alone or three cotreated, Cortisol (5 μM) = 100
[2] = single treatment 0.01 ppm, 24 h, HaCaT, cortisol group = 100
[3] = single treatment 0.1 ppm, 24 h, HaCaT, cortisol group = 100
[4] = single treatment 1 ppm, 24 h, HaCaT, cortisol group = 100

COc1cc(/C=C/C(=O)CC(=O)/C=C/c2ccc(O)c(OC)c2)ccc1O [Curcumin, curcumin]
Production amount of beta-defensin 2 (%) [1]: 106.82% | Production amount of beta-defensin 2 (%) [2]: 96.65% | Production amount of beta-defensin 2 (%) [3]: 97.92% | Production amount of beta-defensin 2 (%) [4]: 106.82% | enhancement efficacy (beta-defensin 2 synthesis): confirmed

NCCS(=O)(=O)O [Taurine, 2-aminoethanesulfonic acid]
Production amount of beta-defensin 2 (%) [1]: 117.6% | Production amount of beta-defensin 2 (%) [2]: 100.60% | Production amount of beta-defensin 2 (%) [3]: 99.90% | Production amount of beta-defensin 2 (%) [4]: 117.60% | Production amount of beta-defensin 2 (%) (single treatment 5 ppm, 24 h, HaCaT, cortisol group = 100): 87.61% | Production amount of beta-defensin 2 (%) (single treatment 10 ppm, 24 h, HaCaT, cortisol group = 100): 83.06% | enhancement efficacy (beta-defensin 2 synthesis): confirmed

C[C@]12CCC(=O)C=C1CC[C@@H]1[C@@H]2[C@@H](O)C[C@@]2(C)[C@H]1CC[C@]2(O)C(=O)CO [cortisol, hydrocortisone, reference compound]
change of beta-defensin 2 in skin cells (HaCaT, cultured for 24 hours): significantly reduced
